In US20260258064A1 (SIRONAX LTD., priority 2023, published 2026):

These molecules were tested against T1, SARM1 (50-724) (Homo sapiens, UniProt Q6SZW1) (assay: SARM1 (50-724) enzymatic assay (LC-MS/MS)). Details: Purified SARM1 (50-724) 2 nM, NMN as activator, NAD+ as substrate, 1 h at room temperature, read-out: IC50 (SARM1 inhibitory activity).
T1 construct: Purified SARM1 (50-724) with a final concentration of 2 nM was pre-incubated with a test compound
T1 sequence (Q6SZW1 50-724): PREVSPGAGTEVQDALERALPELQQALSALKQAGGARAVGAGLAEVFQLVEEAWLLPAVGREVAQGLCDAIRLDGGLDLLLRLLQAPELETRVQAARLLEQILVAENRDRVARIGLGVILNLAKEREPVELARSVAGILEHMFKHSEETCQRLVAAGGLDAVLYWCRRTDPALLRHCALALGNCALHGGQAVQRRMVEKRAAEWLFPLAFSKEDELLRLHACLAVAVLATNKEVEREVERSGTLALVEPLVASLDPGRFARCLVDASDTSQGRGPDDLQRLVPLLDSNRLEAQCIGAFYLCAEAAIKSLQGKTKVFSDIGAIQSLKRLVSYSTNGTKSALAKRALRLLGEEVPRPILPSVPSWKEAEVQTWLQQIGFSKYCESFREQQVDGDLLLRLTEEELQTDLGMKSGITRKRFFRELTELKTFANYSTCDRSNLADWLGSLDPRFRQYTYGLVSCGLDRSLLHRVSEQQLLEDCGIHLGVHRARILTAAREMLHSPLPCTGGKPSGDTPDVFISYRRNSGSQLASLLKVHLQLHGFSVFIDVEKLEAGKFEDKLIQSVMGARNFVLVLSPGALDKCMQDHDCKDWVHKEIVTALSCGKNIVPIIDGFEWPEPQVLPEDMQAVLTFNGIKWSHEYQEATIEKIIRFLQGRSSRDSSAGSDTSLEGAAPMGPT
Type: biochemical
Summary of the method: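 Reaction buffer was Dulbecco's PBS. Compound and 2 nM human SARM1 (50-724) were pre-incubated 15 min at room temperature, then […] NAD^+ and 200 µM NMN activator were added for 1 h at room temperature. Acetonitrile (70%) stop, LC-MS/MS read-out, IC50 values.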

`FC(F)(F)c1ccc2[nH]c(-c3nncn3-c3c(C(F)(F)F)ccn4nccc34)nc2c1` [Compound 309, 5-(trifluoromethyl)-2-(4-(5-(trifluoromethyl)pyrazolo[1,5-a]pyridin-4-yl)-4H-1,2,4-triazol-3-yl)-1H-benzo[d]imidazole] and `FC(F)(F)c1ccc2[nH]c(-c3nncn3-c3c(Cl)cccc3Cl)nc2c1` [Compound 149, 2-(4-(2,6-dichlorophenyl)-4H-1,2,4-triazol-3-yl)-5-(trifluoromethyl)-1H-benzo[d]imidazole] cannot be ordered by IC50: at most 100 nM for the first, at most 100 nM for the second.

`CS(=O)(=O)c1ccc(OC(F)(F)F)c(-n2cnnc2-c2nc3cc(C(F)(F)F)cc(F)c3[nH]2)c1` [Compound 217, 7-fluoro-2-(4-(5-(methylsulfonyl)-2-(trifluoromethoxy)phenyl)-4H-1,2,4-triazol-3-yl)-5-(trifluoromethyl)-1H-benzo[d]imidazole] and `FC(F)(F)Oc1ccc(OC2CC2)cc1-n1cnnc1-c1nc2cc(C(F)(F)F)ccc2[nH]1` [Compound 275, 2-(4-(5-cyclopropoxy-2-(trifluoromethoxy)phenyl)-4H-1,2,4-triazol-3-yl)-5-(trifluoromethyl)-1H-benzo[d]imidazole] cannot be ordered by IC50: at most 100 nM for the first, at most 100 nM for the second.

`CS(=O)(=O)Cc1nnc(-c2nc3cc(C(F)(F)F)cc(F)c3[nH]2)n1-c1cccc(F)c1Cl` (single isomer, unassigned) [Compound 184, 2-(4-(2-Chloro-3-fluorophenyl)-5-((methylsulfonyl)methyl)-4H-1,2,4-triazol-3-yl)-7-fluoro-5-(trifluoromethyl)-1H-benzo[d]imidazole] and `CCS(=O)(=O)Cc1nnc(-c2nc3cc(Cl)cc(F)c3[nH]2)n1-c1cccc(F)c1Cl` [Compound 193, 5-chloro-2-(4-(2-chloro-3-fluorophenyl)-5-((ethylsulfonyl)methyl)-4H-1,2,4-triazol-3-yl)-7-fluoro-1H-benzo[d]imidazole] cannot be ordered by IC50: at most 100 nM for the first, at most 100 nM for the second.

`FC(F)(F)Oc1cnc(C2CCO2)cc1-n1cnnc1-c1nc2cc(C(F)(F)F)ccc2[nH]1` (stereo not drawn) [Compound 294, 2-(4-(2-(oxetan-2-yl)-5-(trifluoromethoxy)pyridin-4-yl)-4H-1,2,4-triazol-3-yl)-5-(trifluoromethyl)-1H-benzo[d]imidazole] and `N#Cc1cccc(-n2cnnc2-c2nc3cc(C(F)(F)F)ccc3[nH]2)c1Cl` [Compound 159, 2-chloro-3-(3-(5-(trifluoromethyl)-1H-benzo[d]imidazol-2-yl)-4H-1,2,4-triazol-4-yl)benzonitrile] cannot be ordered by IC50: at most 100 nM for the first, at most 100 nM for the second.

`FC(F)(F)c1ccc2[nH]c(-c3nncn3-c3cnccc3C(F)(F)F)c(-c3ncccn3)c2c1` [Compound 428, 3-pyrimidin-2-yl-5-(trifluoromethyl)-2-[4-[4-(trifluoromethyl)-3-pyridyl]-1,2,4-triazol-3-yl]-1H-indole] and `CCc1ccncc1-n1cnnc1-c1nc2cc(C(F)(F)F)ccc2[nH]1` [Compound 231, 2-(4-(4-ethylpyridin-3-yl)-4H-1,2,4-triazol-3-yl)-5-(trifluoromethyl)-1H-benzo[d]imidazole] cannot be ordered by IC50: at most 100 nM for the first, at most 100 nM for the second.

`Cc1ccc2[nH]c(-c3nncn3-c3cccc(Cl)c3Cl)nc2c1C` [Example 93, 2-(4-(2,3-dichlorophenyl)-4H-1,2,4-triazol-3-yl)-4,5-dimethyl-1H-benzo[d]imidazole] and `COC(C)(C)c1ccc2[nH]c(-c3nncn3-c3cccc(Cl)c3Cl)nc2c1` [Example 110] cannot be ordered by IC50: at most 100 nM for the first, at most 100 nM for the second.

`Fc1cc(C(F)(F)F)cc2nc(-c3nnc(CC(F)F)n3-c3cnccc3C(F)(F)F)[nH]c12` [Compound 317, 2-(5-(2,2-difluoroethyl)-4-(4-(trifluoromethyl)pyridin-3-yl)-4H-1,2,4-triazol-3-yl)-7-fluoro-5-(trifluoromethyl)-1H-benzo[d]imidazole] and `Fc1cc(C2CC2COC(F)F)cc2nc(-c3nncn3-c3cnccc3C(F)(F)F)[nH]c12` (stereo not drawn) [Compound 440, 5-(2-((difluoromethoxy)methyl)cyclopropyl)-7-fluoro-2-(4-(4-(trifluoromethyl)-pyridin-3-yl)-4H-1,2,4-triazol-3-yl)-1H-benzo[d]imidazole] cannot be ordered by IC50: at most 100 nM for the first, at most 100 nM for the second.

First: Cc1ccc2[nH]c(-c3cccn3C3CCCC3)nc2c1 [Compound 6, 2-(1-cyclopentylpyrrol-2-yl)-5-methyl-1H-benzimidazole]
Second: Cc1ccc2[nH]c(-n3c(-c4cccc(Cl)c4Cl)n[nH]c3=O)nc2c1 [Compound 31, 5-(2,3-dichlorophenyl)-4-(5-methyl-1H-benzo[d]imidazol-2-yl)-2,4-dihydro-3H-1,2,4-triazol-3-one]
The IC50 of the first is lower: 100 to 500 nM for the first, over 1000 nM for the second. The first is the more potent here.

`C[S+]([O-])Cc1nnc(-c2nc3cc(C(F)(F)F)ccc3[nH]2)n1-c1cccc(Cl)c1Cl` (single isomer, unassigned) [Compound 146, 2-(4-(2,3-dichlorophenyl)-5-((methylsulfinyl)methyl)-4H-1,2,4-triazol-3-yl)-5-(trifluoromethyl)-1H-benzo[d]imidazole] and `NC(=O)c1nnc(-c2nc3cc(C(F)(F)F)ccc3[nH]2)n1-c1cccc(Cl)c1Cl` [Compound 77] cannot be ordered by IC50: at most 100 nM for the first, 100 to 500 nM for the second.

`Clc1cccc(-n2cnnc2-c2nc3cc(-c4cnn[nH]4)ccc3[nH]2)c1Cl` [Example 56, 2-(4-(2,3-dichlorophenyl)-4H-1,2,4-triazol-3-yl)-5-(1H-1,2,3-triazol-5-yl)-1H-benzo[d]imidazole] and `CC(C)(C(N)=O)c1ccc2[nH]c(-c3nncn3-c3cccc(Cl)c3Cl)nc2c1` [Example 107] cannot be ordered by IC50: 100 to 500 nM for the first, at most 100 nM for the second.

`CN1CCN(c2ccc(Cl)c(-n3cnnc3-c3nc4cc(C(F)(F)F)ccc4[nH]3)n2)CC1=O` [Compound 208, 4-(5-chloro-6-(3-(5-(trifluoromethyl)-1H-benzo[d]imidazol-2-yl)-4H-1,2,4-triazol-4-yl)pyridin-2-yl)-1-methylpiperazin-2-one] and `O=c1nc(-c2nc3cc(C(F)(F)F)ccc3[nH]2)c(-c2cccc(Cl)c2Cl)c[nH]1` [Example 54] cannot be ordered by IC50: at most 100 nM for the first, 100 to 500 nM for the second.

`CC1CCN(c2cc(F)c3[nH]c(-c4nncn4-c4cnccc4C(F)(F)F)nc3c2)C1` (stereo not drawn) [Compound 436, 4-fluoro-6-(3-methylpyrrolidin-1-yl)-2-(4-(4-(trifluoromethyl)pyridin-3-yl)-4H-1,2,4-triazol-3-yl)-1H-benzo[d]imidazole] and `CCC(=O)c1cc(F)c2[nH]c(-c3nncn3-c3cnccc3C(F)(F)F)nc2c1` [Compound 452, 1-(4-fluoro-2-(4-(4-(trifluoromethyl)pyridin-3-yl)-4H-1,2,4-triazol-3-yl)-1H-benzo[d]imidazol-6-yl)propan-1-one] cannot be ordered by IC50: at most 100 nM for the first, at most 100 nM for the second.

First: CC(C)(O)c1cc(F)c2[nH]c(-c3nnccc3-c3cnccc3C(F)(F)F)nc2c1 [Compound 418, 2-(4-fluoro-2-(4-(4-(trifluoromethyl)pyridin-3-yl)pyridazin-3-yl)-1H-benzo[d]imidazol-6-yl)propan-2-ol]
Second: FC(F)(F)c1ccc2[nH]c(-c3n[nH]cc3-c3cccc(Cl)c3Cl)nc2c1 [Example 43]
The IC50 of the first is lower: at most 100 nM for the first, 500 to 1000 nM for the second. The first is the more potent here.

In the case of `FC(F)(F)c1ccc2[nH]c(N3CCSCC3c3ccccc3)nc2c1` (stereo not drawn) [Compound 319, 3-phenyl-4-(5-(trifluoromethyl)-1H-benzo[d]imidazol-2-yl)thiomorpholine], the IC50 is reported as over 1000 nM.
